From paper PMC7006622 (2019)

Experiments:
[1] = test system: TWJ molecular switch for 17β-estradiol (B5/G14 split aptamer, with FP1 and CP1) (DNA, aptamer) TAGGGTGCGGCTCTGCGCATTCAATTGCTGCGCGCTGAAGCGCGGAAGCCCGTACTCTATGAGCCTCTG/GCTTCCAGCTTATTGAATTACACGCAGAGGGTACCGTGT/AAACACGGATCCCATA; experiment: single-molecule TIRF, fluorescent probe binding kinetics; conditions: 1× PBS; apparent; read from calibration curve of probe kon,F and koff,F against Kd; oxygen scavenger system; surface-immobilised DNA
[2] = test system: TWJ molecular switch for ATP (B3/G12 split aptamer, with FP1 and CP1) (DNA, aptamer) TGGGATTGGAAGGAGGCGTCCGTACTCTATGAGCCTCTG/TATGAGGGGGTCCACCGTGT/AAACACGGATCCCATA; experiment: single-molecule TIRF, transient binding of fluorescent probe; conditions: 1× PBS; qualitative; oxygen scavenger system; surface-immobilised DNA

| Kd [1] | binding [2] | Compound |
| --- | --- | --- |
| 18 nM |  | C[C@]12CC[C@@H]3c4ccc(O)cc4CC[C@H]3[C@@H]1CC[C@@H]2O |
|  | yes | Nc1ncnc2c1ncn2[C@@H]1O[C@H](COP(=O)(O)OP(=O)(O)OP(=O)(O)O)[C@@H](O)[C@H]1O |
